We go through 3 molecules from US20140336130A1 (PHIGENIX, INC., priority 2011, published 2014).

Type in all cases: cell-based, human
For test [1], the system named is PAX2 protein. Kind of test: Western blot analysis of PAX2 protein. The conditions noted are these: DU145; Los 5 μM, U0126 25 μM, PD98059 20 μM, AICAR 250 μM; vs untreated control. On the procedure:
Briefly, cells were harvested by trypsinization and washed twice with PBS. Lysis buffer was prepared according to the manufacturer's instructions (Sigma), and was then added to the cells. Following a 15 minute incubation period at 4° C. on an orbital shaker, cell lysate were then collected and centrifuged for 10 minutes at 12000×g to pellet cellular debris. The protein-containing supernatant were then collected and quantitated. Next, 25 μg protein extract was loaded onto an 8-16% gradient SDS-PAGE (Novex). Following electrophoresis, proteins were transferred to PVDF membranes, and then blocked with 5% nonfat dry milk in TTBS (0.05% Tween 20 and 100 mM Tris-Cl) for 1 hour. Blots were then probed with rabbit anti-PAX2 primary antibody (Zymed, San Francisco, Calif.) at a 1:2000 dilution. After washing, the membranes were incubated with anti-rabbit antibody conjugated to horseradish peroxidase (HRP) (dilution 1:5000; Sigma), and signal detection was visualized using chemilluminescence reagents (Pierce) on an Alpha Innotech Fluorchem 8900. As a control, blots were stripped and reprobed with mouse anti-β-actin primary antibody (1:5000; Sigma-Aldrich) and HRP— conjugated anti-mouse secondary antibody (1:5000; Sigma-Aldrich) and signal detection was again visualized.
Western blot analysis was performed as described in Example 2. Blots were then probed with primary antibody (anti-PAX2, -phospho-PAX2, -JNK, -phospho-JNK, -ERK1/2, or -phospho-ERK1/2) (Zymed, San Francisco, Calif.) at 1:1000-2000 dilutions. After washing, the membranes were incubated with anti-rabbit antibody conjugated to horseradish peroxidase (HRP) (dilution 1:5000; Sigma), and signal detection was visualized using chemilluminescence reagents (Pierce) on an Alpha Innotech Fluorchem 8900. As a control, blots were stripped and re-probed with mouse anti-β-actin primary antibody (1:5000; Sigma-Aldrich) and HRP— conjugated anti-mouse secondary antibody (1:5000; Sigma-Aldrich), and signal detection was again visualized.\
Western blot analysis was performed as described in Example 2.
(Immunoblotting shows a protein as a band on a membrane.)

For test [2], the system named is PAX2 expression. In words: PAX2 expression after AngII or pathway blockers. The conditions noted are these: DU145; for PAX2 expression, fold increase: PD123319 5 μM.
The subject of test [3] is phospho-STAT3. In words: Western blot of phospho-STAT3. The conditions noted are these: DU145; vs untreated control. As to the method:
(§1) Western blot analysis was performed as described in Example 2. […] After washing, the membranes were incubated with anti-rabbit antibody conjugated to horseradish peroxidase (HRP) (dilution 1:5000; Sigma), and signal detection was visualized using chemilluminescence reagents (Pierce) on an Alpha Innotech Fluorchem 8900. As a control, blots were stripped and re-probed with mouse anti-β-actin primary antibody (1:5000; Sigma-Aldrich) and HRP— conjugated anti-mouse secondary antibody (1:5000; Sigma-Aldrich), and signal detection was again visualized.\

Test [4] relates to phospho-PAX2. Kind of test: Western blot of phospho-PAX2. The conditions noted are these: DU145. On the procedure:
as §1

Structures are written as SMILES. “Also recorded” adds a separate entry of the source.

As for `COc1cccc(-c2cc(=O)c3ccccc3o2)c1N` [PD98059], the PAX2 protein levels entry in test [1] was “suppress PAX2 protein levels”. For the same molecule, the PAX2 expression entry in test [2] (U0126 25 μM, PD98059 20 μM) was “decreased PAX2”. The phospho-STAT3 protein levels result in test [3] is on record as “reduced phospho-STAT3 protein levels; also recorded: suppress phospho-STAT3 protein levels”. For the same molecule, the phospho-PAX2 protein levels entry in test [4] is given as “significant decrease or suppression; also recorded: suppress phospho-PAX2 protein expression levels”.

Regarding `Cc1cc(Cn2cnc3c2C[C@@H](C(=O)O)N(C(=O)C(c2ccccc2)c2ccccc2)C3)ccc1N(C)C` [PD123319], the “PAX2 expression, fold increase” value turned out to be 7 fold in test [2] (48 hours) and 8 fold in test [2] (96 hours).

As to `NC(=O)c1ncn([C@@H]2O[C@H](CO)[C@@H](O)[C@H]2O)c1N` [AICAR, 5-Aminoimidazole-4-carboxamide-1-β-4-ribofuranoside], the PAX2 protein levels entry in test [1] is listed as “suppression of PAX2 expression; also recorded: suppress PAX2 protein levels”. Also, in test [3], the phospho-STAT3 protein levels result is “suppressed; also recorded: suppress phospho-STAT3 protein levels”. Also, the phospho-PAX2 protein levels entry in test [4] is on record as “suppression; also recorded: suppress phospho-PAX2 protein expression levels”.
